From patent publication EP0584797A2, “Novel cephalosporin compounds and processes for the preparation thereof” (LUCKY LTD., priority 1992, dated 1994)
Converted amounts (≈) assume the structure as drawn.

Assays:
Experiment in all cases: minimal inhibitory concentration, two-fold agar dilution
Format in all cases: cell-based
[1] = tested on: Morganella morganii ATCC 8076h; conditions: ATCC8076H, Muller-Hinton agar, 37°C, 20 hours, read-out: MIC values against the standard strains
Description: (§1) These MIC values were taken by employing a two-fold dilution method: that is, two-fold serial dilutions of each of the test compounds were made and dispersed in a Muller-Hinton agar medium; 2µl of the standard test strain which had the 10⁷ CFU(Colony Forming Unit) per ml was inoculated on the medium; and these were incubated at 37°C for 20 hours.

[2] = tested on: Acinetobacter calcoaceticus ATCC 15473; conditions: ATCC15473, Muller-Hinton agar, 37°C, 20 hours, read-out: MIC values against the standard strains
Description: as §1

[3] = tested on: Streptococcus faecalis ATCC 29212; conditions: Enterococcus faecalis, ATCC29212; Muller-Hinton agar; 37°C; 20 hours; read-out: MIC values against the standard strains
Description: as §1

[4] = tested on: Salmonella typhimurium ATCC 14028; conditions: Salmonella enterica; Muller-Hinton agar; 37°C; 20 hours; read-out: MIC values against the standard strains
Description: as §1

[5] = tested on: Providencia rettgeri ATCC 9250; conditions: ATCC9250, Muller-Hinton agar, 37°C, 20 hours, read-out: MIC values against the standard strains
Description: as §1

[6] = tested on: Bacillus megaterium ATCC 9885; conditions: Priestia megaterium, ATCC9885; Muller-Hinton agar; 37°C; 20 hours; read-out: MIC values against the standard strains
Description: as §1

[7] = tested on: Micrococcus luteus ATCC 9341; conditions: ATCC9341, Muller-Hinton agar, 37°C, 20 hours, read-out: MIC values against the standard strains
Description: as §1

[8] = tested on: Shigella sonnei ATCC 11060; conditions: ATCC11060, Muller-Hinton agar, 37°C, 20 hours, read-out: MIC values against the standard strains
Description: as §1

[9] = tested on: Proteus vulgaris ATCC 6059; conditions: ATCC6059, Muller-Hinton agar, 37°C, 20 hours, read-out: MIC values against the standard strains
Description: as §1

[10] = tested on: Escherichia coli ATCC 10536; conditions: ATCC10536, Muller-Hinton agar, 37°C, 20 hours, read-out: MIC values against the standard strains
Description: as §1

[11] = tested on: Bacillus cereus ATCC 11778; conditions: ATCC11778, Muller-Hinton agar, 37°C, 20 hours, read-out: MIC values against the standard strains
Description: as §1

[12] = tested on: Staphylococcus aureus ATCC 6538p; conditions: ATCC6538P, Muller-Hinton agar, 37°C, 20 hours, read-out: MIC values against the standard strains
Description: as §1

[13] = tested on: Enterobacter cloacae ATCC 27508; conditions: ATCC27508, Muller-Hinton agar, 37°C, 20 hours, read-out: MIC values against the standard strains
Description: as §1

[14] = tested on: Pseudomonas aeruginosa ATCC 10145; conditions: ATCC10145, Muller-Hinton agar, 37°C, 20 hours, read-out: MIC values against the standard strains
Description: as §1

[15] = tested on: Shigella flexneri ATCC 11836; conditions: ATCC11836, Muller-Hinton agar, 37°C, 20 hours, read-out: MIC values against the standard strains
Description: as §1

[16] = tested on: Proteus mirabilis ATCC 25933; conditions: ATCC25933, Muller-Hinton agar, 37°C, 20 hours, read-out: MIC values against the standard strains
Description: as §1

[17] = tested on: Pseudomonas aeruginosa ATCC 25619; conditions: ATCC25619, Muller-Hinton agar, 37°C, 20 hours, read-out: MIC values against the standard strains
Description: as §1

[18] = tested on: Enterobacter aerogenes ATCC 29751; conditions: Klebsiella aerogenes, ATCC29751; Muller-Hinton agar; 37°C; 20 hours; read-out: MIC values against the standard strains
Description: as §1

[19] = tested on: Pseudomonas aeruginosa ATCC 27853; conditions: ATCC27853, Muller-Hinton agar, 37°C, 20 hours, read-out: MIC values against the standard strains
Description: as §1

[20] = tested on: Staphylococcus aureus ATCC 10537; conditions: ATCC10537, Muller-Hinton agar, 37°C, 20 hours, read-out: MIC values against the standard strains
Description: as §1

[21] = tested on: Staphylococcus epidermidis ATCC 12228; conditions: ATCC12228, Muller-Hinton agar, 37°C, 20 hours, read-out: MIC values against the standard strains
Description: as §1

[22] = tested on: Klebsiella pneumoniae ATCC 10031; conditions: ATCC10031, Muller-Hinton agar, 37°C, 20 hours, read-out: MIC values against the standard strains
Description: as §1

[23] = tested on: Citrobacter freundii ATCC 8090; conditions: ATCC8090, Muller-Hinton agar, 37°C, 20 hours, read-out: MIC values against the standard strains
Description: as §1

[24] = tested on: Serratia marcescens ATCC 27117; conditions: ATCC27117, Muller-Hinton agar, 37°C, 20 hours, read-out: MIC values against the standard strains
Description: as §1

[25] = tested on: Escherichia coli ATCC 25922; conditions: ATCC25922, Muller-Hinton agar, 37°C, 20 hours, read-out: MIC values against the standard strains
Description: as §1

Structure (SMILES) | MIC [1] [µg/mL] | MIC [2] [µg/mL] | MIC [3] [µg/mL] | MIC [4] [µg/mL] | MIC [5] [µg/mL] | MIC [6] [µg/mL] | MIC [7] [µg/mL] | MIC [8] [µg/mL] | MIC [9] [µg/mL] | MIC [10] [µg/mL] | MIC [11] [µg/mL] | MIC [12] [µg/mL] | MIC [13] [µg/mL] | MIC [14] [µg/mL] | MIC [15] [µg/mL] | MIC [16] [µg/mL] | MIC [17] [µg/mL] | MIC [18] [µg/mL] | MIC [19] [µg/mL] | MIC [20] [µg/mL] | other results
CCO/N=C(\C(=O)N[C@@H]1C(=O)N2C(C(=O)[O-])=C(CSc3nc(N)c(N)c[n+]3N)CS[C@H]12)c1csc(N)n1 [Example 46, 7-[(Z)-2-(2-aminothiazol-4-yl)-2-(ethoxyimino)acetamido]-3-(1,4,5-triaminopyrimidinium-2-yl)thiomethyl-3-cephem-4-carboxylate] | 0.016 (≈ 0.0282 µM) | 4 (≈ 7.06 µM) | 8 (≈ 14.1 µM) | 0.25 (≈ 0.441 µM) | 0.031 (≈ 0.0547 µM) | 0.063 (≈ 0.111 µM) | 0.031 (≈ 0.0547 µM) | 0.031 (≈ 0.0547 µM) | 0.25 (≈ 0.441 µM) | 0.031 (≈ 0.0547 µM) | 64 (≈ 113 µM) | 0.25 (≈ 0.441 µM) | ≤ 0.008 | 8 (≈ 14.1 µM) | 0.031 (≈ 0.0547 µM) | 0.25 (≈ 0.441 µM) | 0.5 (≈ 0.882 µM) | 1 (≈ 1.76 µM) | 4 (≈ 7.06 µM) | 0.13 (≈ 0.229 µM) | MIC [21]: 0.031 µg/mL (≈ 0.0547 µM); MIC [22]: 0.063 µg/mL (≈ 0.111 µM); MIC [23]: 0.063 µg/mL (≈ 0.111 µM); MIC [24]: 0.25 µg/mL (≈ 0.441 µM); MIC [25]: 0.031 µg/mL (≈ 0.0547 µM)
CC(C)(O/N=C(\C(=O)N[C@@H]1C(=O)N2C(C(=O)[O-])=C(CSc3nc(N)c(N)c[n+]3N)CS[C@H]12)c1csc(N)n1)C(=O)O [Example 47, 7-[(Z)-2-(2-aminothiazol-4-yl)-2-(carboxyprop-2-oxyimino)acetamido]-3-(1,4,5-triaminopyrimidinium-2-yl)thiomethyl-3-cephem-4-carboxylate] | ≤ 0.008 | 16 (≈ 25.6 µM) | > 128 | 0.13 (≈ 0.208 µM) | ≤ 0.008 | 0.5 (≈ 0.8 µM) | 0.25 (≈ 0.4 µM) | 0.031 (≈ 0.0496 µM) | 0.063 (≈ 0.101 µM) | 0.031 (≈ 0.0496 µM) | 128 (≈ 205 µM) | 4 (≈ 6.4 µM) | ≤ 0.008 | 2 (≈ 3.2 µM) | 0.031 (≈ 0.0496 µM) | 0.063 (≈ 0.101 µM) | 1 (≈ 1.6 µM) | 1 (≈ 1.6 µM) | 2 (≈ 3.2 µM) | 2 (≈ 3.2 µM) | MIC [21]: 2 µg/mL (≈ 3.2 µM); MIC [22]: 0.031 µg/mL (≈ 0.0496 µM); MIC [23]: 0.031 µg/mL (≈ 0.0496 µM); MIC [24]: 0.13 µg/mL (≈ 0.208 µM); MIC [25]: 0.031 µg/mL (≈ 0.0496 µM)
CN(C)c1cc(N)nc(SCC2=C(C(=O)[O-])N3C(=O)[C@@H](NC(=O)/C(=N\OC(C)(C)C(=O)O)c4csc(N)n4)[C@H]3SC2)[n+]1C [Example 50, 7-[(Z)-2-(2-aminothiazol-4-yl)-2-(carboxyprop-2-oxyimino)acetamido]-3-{4-amino-1-methyl-6-(N,N-dimethyl)aminopyrimidinium-2-yl}thiomethyl-3-cephem-4-carboxylate] | ≤ 0.008 | 4 (≈ 6.14 µM) | > 128 | 0.13 (≈ 0.199 µM) | ≤ 0.008 | 0.25 (≈ 0.384 µM) | 0.25 (≈ 0.384 µM) | 0.063 (≈ 0.0967 µM) | 0.031 (≈ 0.0476 µM) | 0.063 (≈ 0.0967 µM) | 128 (≈ 196 µM) | 8 (≈ 12.3 µM) | ≤ 0.008 | 2 (≈ 3.07 µM) | 0.031 (≈ 0.0476 µM) | 0.031 (≈ 0.0476 µM) | 1 (≈ 1.53 µM) | 0.5 (≈ 0.767 µM) | 1 (≈ 1.53 µM) | 4 (≈ 6.14 µM) | MIC [21]: 2 µg/mL (≈ 3.07 µM); MIC [22]: 0.063 µg/mL (≈ 0.0967 µM); MIC [23]: 0.063 µg/mL (≈ 0.0967 µM); MIC [24]: 0.13 µg/mL (≈ 0.199 µM); MIC [25]: 0.063 µg/mL (≈ 0.0967 µM)
Cc1c[n+](N)c(SCC2=C(C(=O)[O-])N3C(=O)[C@@H](NC(=O)/C(=N\OC(C)(C)C(=O)O)c4csc(N)n4)[C@H]3SC2)nc1N [Example 57] | ≤ 0.008 | 16 (≈ 25.7 µM) | > 128 | 0.13 (≈ 0.208 µM) | ≤ 0.008 | 0.25 (≈ 0.401 µM) | 0.25 (≈ 0.401 µM) | 0.063 (≈ 0.101 µM) | 0.031 (≈ 0.0497 µM) | 0.063 (≈ 0.101 µM) | 128 (≈ 205 µM) | 8 (≈ 12.8 µM) | ≤ 0.008 | 2 (≈ 3.21 µM) | 0.063 (≈ 0.101 µM) | 0.031 (≈ 0.0497 µM) | 1 (≈ 1.6 µM) | 0.5 (≈ 0.802 µM) | 2 (≈ 3.21 µM) | 2 (≈ 3.21 µM) | MIC [21]: 2 µg/mL (≈ 3.21 µM); MIC [22]: 0.063 µg/mL (≈ 0.101 µM); MIC [23]: 0.031 µg/mL (≈ 0.0497 µM); MIC [24]: 0.13 µg/mL (≈ 0.208 µM); MIC [25]: 0.063 µg/mL (≈ 0.101 µM)
